Experimental data as given in the NIST ThermoML archive (doi:10.1021/je200637v).
Numbers after ± are expanded uncertainties.

Experiment: activity coefficient (dimensionless); of the first substance listed, at infinite dilution; xn = mol fraction of the nth substance listed
Conditions: Liquid, Chromatography, x1 = 0

## CCCCCCCCC [nonane] + CCCCCCCC[N+](CCCCCCCC)(CCCCCCCC)CCCCCCCC.O=S(=O)([N-]S(=O)(=O)C(F)(F)F)C(F)(F)F
322.85 K
  activity coefficient: 2.19 ± 0.1
332.65 K
  activity coefficient: 2.14 ± 0.1
343.15 K
  activity coefficient: 2.09 ± 0.09

## CCCCCCCCC [nonane] + CCCC[N+](C)(CCCC)CCCC.O=S(=O)([N-]S(=O)(=O)C(F)(F)F)C(F)(F)F
322.85 K
  activity coefficient: 16.5 ± 0.76
332.65 K
  activity coefficient: 16.1 ± 0.74
343.15 K
  activity coefficient: 15 ± 0.69

## CCCCCCCC [octane] + CCCCCCCCCC[N+](C)(C)C.O=S(=O)([N-]S(=O)(=O)C(F)(F)F)C(F)(F)F
322.85 K
  activity coefficient: 6.53 ± 0.3
332.65 K
  activity coefficient: 6.41 ± 0.29
343.15 K
  activity coefficient: 6.1 ± 0.28

## CCCCCCCC [octane] + CCCCCCCC[N+](C)(C)C.O=S(=O)([N-]S(=O)(=O)C(F)(F)F)C(F)(F)F
322.85 K
  activity coefficient: 11 ± 0.51
332.65 K
  activity coefficient: 10.3 ± 0.47
343.15 K
  activity coefficient: 9.47 ± 0.43

## CCCCCCCC [octane] + CCCCCCCC[N+](CCCCCCCC)(CCCCCCCC)CCCCCCCC.O=S(=O)([N-]S(=O)(=O)C(F)(F)F)C(F)(F)F
322.85 K
  activity coefficient: 1.73 ± 0.07
332.65 K
  activity coefficient: 1.71 ± 0.07
343.15 K
  activity coefficient: 1.69 ± 0.07

## CCCCCCCC [octane] + CCCC[N+](C)(CCCC)CCCC.O=S(=O)([N-]S(=O)(=O)C(F)(F)F)C(F)(F)F
322.85 K
  activity coefficient: 11.6 ± 0.53
332.65 K
  activity coefficient: 11.5 ± 0.53
343.15 K
  activity coefficient: 10.8 ± 0.5

## CCCC(C)=O [pentan-2-one] + CCCCCCCCCC[N+](C)(C)C.O=S(=O)([N-]S(=O)(=O)C(F)(F)F)C(F)(F)F
322.85 K
  activity coefficient: 0.44 ± 0.03
332.65 K
  activity coefficient: 0.47 ± 0.03
343.15 K
  activity coefficient: 0.47 ± 0.03

## CCCC(C)=O [pentan-2-one] + CCCCCCCC[N+](C)(C)C.O=S(=O)([N-]S(=O)(=O)C(F)(F)F)C(F)(F)F
322.85 K
  activity coefficient: 0.57 ± 0.03
332.65 K
  activity coefficient: 0.57 ± 0.03
343.15 K
  activity coefficient: 0.57 ± 0.03

## CCCC(C)=O [pentan-2-one] + CCCCCCCC[N+](CCCCCCCC)(CCCCCCCC)CCCCCCCC.O=S(=O)([N-]S(=O)(=O)C(F)(F)F)C(F)(F)F
322.85 K
  activity coefficient: 0.35 ± 0.04
332.65 K
  activity coefficient: 0.36 ± 0.04
343.15 K
  activity coefficient: 0.37 ± 0.03

## CCCC(C)=O [pentan-2-one] + CCCC[N+](C)(CCCC)CCCC.O=S(=O)([N-]S(=O)(=O)C(F)(F)F)C(F)(F)F
322.85 K
  activity coefficient: 0.55 ± 0.03
332.65 K
  activity coefficient: 0.58 ± 0.03
343.15 K
  activity coefficient: 0.59 ± 0.03

## CCC(=O)CC [pentan-3-one] + CCCCCCCCCC[N+](C)(C)C.O=S(=O)([N-]S(=O)(=O)C(F)(F)F)C(F)(F)F
322.85 K
  activity coefficient: 0.41 ± 0.03
332.65 K
  activity coefficient: 0.43 ± 0.03
343.15 K
  activity coefficient: 0.44 ± 0.03

## CCC(=O)CC [pentan-3-one] + CCCCCCCC[N+](C)(C)C.O=S(=O)([N-]S(=O)(=O)C(F)(F)F)C(F)(F)F
322.85 K
  activity coefficient: 0.52 ± 0.03
332.65 K
  activity coefficient: 0.53 ± 0.03
343.15 K
  activity coefficient: 0.54 ± 0.03

## CCC(=O)CC [pentan-3-one] + CCCCCCCC[N+](CCCCCCCC)(CCCCCCCC)CCCCCCCC.O=S(=O)([N-]S(=O)(=O)C(F)(F)F)C(F)(F)F
322.85 K
  activity coefficient: 0.32 ± 0.04
332.65 K
  activity coefficient: 0.33 ± 0.04
343.15 K
  activity coefficient: 0.35 ± 0.04

## CCC(=O)CC [pentan-3-one] + CCCC[N+](C)(CCCC)CCCC.O=S(=O)([N-]S(=O)(=O)C(F)(F)F)C(F)(F)F
322.85 K
  activity coefficient: 0.5 ± 0.03
332.65 K
  activity coefficient: 0.54 ± 0.03
343.15 K
  activity coefficient: 0.56 ± 0.03

## CCCO [propan-1-ol] + CCCCCCCCCC[N+](C)(C)C.O=S(=O)([N-]S(=O)(=O)C(F)(F)F)C(F)(F)F
322.85 K
  activity coefficient: 1.48 ± 0.06
332.65 K
  activity coefficient: 1.37 ± 0.05
343.15 K
  activity coefficient: 1.21 ± 0.04

## CCCO [propan-1-ol] + CCCCCCCC[N+](C)(C)C.O=S(=O)([N-]S(=O)(=O)C(F)(F)F)C(F)(F)F
322.85 K
  activity coefficient: 1.7 ± 0.07
332.65 K
  activity coefficient: 1.55 ± 0.06
343.15 K
  activity coefficient: 1.37 ± 0.05

## CCCO [propan-1-ol] + CCCCCCCC[N+](CCCCCCCC)(CCCCCCCC)CCCCCCCC.O=S(=O)([N-]S(=O)(=O)C(F)(F)F)C(F)(F)F
322.85 K
  activity coefficient: 1.22 ± 0.04
332.65 K
  activity coefficient: 1.14 ± 0.03
343.15 K
  activity coefficient: 1.04 ± 0.03

## CCCO [propan-1-ol] + CCCC[N+](C)(CCCC)CCCC.O=S(=O)([N-]S(=O)(=O)C(F)(F)F)C(F)(F)F
322.85 K
  activity coefficient: 1.78 ± 0.08
332.65 K
  activity coefficient: 1.64 ± 0.07
343.15 K
  activity coefficient: 1.48 ± 0.06

## CC(C)O [propan-2-ol] + CCCCCCCCCC[N+](C)(C)C.O=S(=O)([N-]S(=O)(=O)C(F)(F)F)C(F)(F)F
322.85 K
  activity coefficient: 1.38 ± 0.05
332.65 K
  activity coefficient: 1.28 ± 0.04
343.15 K
  activity coefficient: 1.15 ± 0.04

## CC(C)O [propan-2-ol] + CCCCCCCC[N+](C)(C)C.O=S(=O)([N-]S(=O)(=O)C(F)(F)F)C(F)(F)F
322.85 K
  activity coefficient: 1.63 ± 0.07
343.15 K
  activity coefficient: 1.32 ± 0.05

## CC(C)O [propan-2-ol] + CCCCCCCC[N+](CCCCCCCC)(CCCCCCCC)CCCCCCCC.O=S(=O)([N-]S(=O)(=O)C(F)(F)F)C(F)(F)F
322.85 K
  activity coefficient: 1.21 ± 0.04
332.65 K
  activity coefficient: 1.13 ± 0.03
343.15 K
  activity coefficient: 1.05 ± 0.03

## CC(C)O [propan-2-ol] + CCCC[N+](C)(CCCC)CCCC.O=S(=O)([N-]S(=O)(=O)C(F)(F)F)C(F)(F)F
322.85 K
  activity coefficient: 1.67 ± 0.07
332.65 K
  activity coefficient: 1.54 ± 0.06
343.15 K
  activity coefficient: 1.4 ± 0.05
